Results taken from patent US8426429B2, “2-amino-quinazoline derivatives useful as inhibitors of β-secretase (BACE)” (Jansssen Pharmaceutica N.V., priority 2004, dated 2013).

Target: T1, β-secretase (BACE) (Homo sapiens, UniProt P56817)
T1 construct: purchased Panvera
Assay: BACE FS1 % Inhibition Assay
Type: biochemical
Method: The following reagents were used in this assay: sodium acetate, PEG8000 (Sigma), DMSO, HEPES, FS1 substrate [[…]] […] The FS1-substrate stock solution was prepared in DMSO as a 10 mg/mL solution. The FS1-substrate working solution was prepared by diluting the 10 mg/mL stock solution with substrate assay buffer to a final concentration of 300 μg/mL. The β-secretase (BACE) working solution was prepared by diluting a 0.83 mg/mL BACE stock solution with enzyme assay buffer to a final concentration of 4 μg/mL. Test compounds were dissolved in DMSO to 10 mM. […] The screening procedure for this assay was as follows: 15 μL of BACE working solution was pipetted into each well of a 96-well plate. To each well was then pipetted 2 μL of test compound at the selected concentration. Test compound and BACE were then mixed with a pipettor and incubated for 20 min at room temperature. To each well was then added 10 μL of the FS1 substrate working solution. The plates were then incubated for 1 hour at room temperature. […] The procedure for the blank was as follows. 15 μL of assay buffer was pipetted into each well to be used as a blank control. To each well was then added 2 μL of vehicle and 10 μL of FS1-substrate working solution. The plates were then incubated for 1 hour at room temperature. […] The procedure for the positive control was as follows: 15 μL of BACE working solution was pipetted into each well to be used as a positive control. To each well was then pipetted 2 μL of vehicle. Vehicle and BACE were then mixed with a pipettor and incubated for 20 min at room temperature. To each well was then added 10 μL of the FS1 substrate working solution. The plates were then incubated for 1 hour at room temperature. […] For test compounds, % inhibition was determined at each concentration as follows: [formula]

T1 sequence (P56817 46-501): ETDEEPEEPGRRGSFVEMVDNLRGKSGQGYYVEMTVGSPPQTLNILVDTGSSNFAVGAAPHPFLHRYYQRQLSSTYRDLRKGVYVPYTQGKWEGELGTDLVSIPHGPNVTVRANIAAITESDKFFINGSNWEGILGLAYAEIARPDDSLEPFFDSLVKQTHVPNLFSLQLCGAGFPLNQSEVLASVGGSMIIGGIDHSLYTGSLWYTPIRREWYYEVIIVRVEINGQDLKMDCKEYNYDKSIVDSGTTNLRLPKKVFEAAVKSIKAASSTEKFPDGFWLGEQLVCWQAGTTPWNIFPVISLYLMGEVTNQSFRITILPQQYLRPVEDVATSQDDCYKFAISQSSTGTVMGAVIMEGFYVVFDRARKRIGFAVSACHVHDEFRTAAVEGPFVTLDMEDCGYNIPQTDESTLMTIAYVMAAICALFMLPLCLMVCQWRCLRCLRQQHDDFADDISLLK

Compound	% Inhibition (FS) (0.3 μM test compound) [%]	% Inhibition (FS) (1 μM test compound) [%]	% Inhibition (FS) (3 μM test compound) [%]
CC(C)C(CC(=O)N(C)C1CCCCC1)N1Cc2cc(Oc3ccccc3)ccc2N=C1N (stereo not drawn) [Compound 201]	<30	<30	66
CC(C)C(CC(=O)N(C(C)C)C1CCCCC1)N1Cc2cc(Oc3ccccc3)ccc2N=C1N (stereo not drawn) [Compound 202]	<30	<30	<30
NC1=Nc2ccc(Oc3ccccc3)cc2CN1CCNC(=O)C(c1ccccc1)c1ccccc1 [Compound 207]	48	90	108
CCCCCCCCC(CCC(=O)N(C)C1CCCCC1)N1Cc2cc(Oc3ccccc3)ccc2N=C1N (stereo not drawn) [Compound 210]	<30	<30	<30
COc1cccc(C(=O)NCCN2Cc3cc(Oc4ccccc4)ccc3N=C2N)c1 [Compound 217]	<30	<30	56
CC(C)(C)OC(=O)Nc1cccc(CN2Cc3cc(Oc4ccccc4)ccc3N=C2N)c1 [Compound 224]	<30	<30	<30
COc1ccc(-c2ccc3c(c2)CN(C(CCC(=O)N(C)C2CCCCC2)C2CCCCC2)C(N)=N3)cc1 (stereo not drawn) [Compound 226]	<30	<30	54
CC(=O)Nc1cccc(Oc2ccc3c(c2)CN(Cc2cccc(C(=O)N(C)C4CCCCC4)c2)C(N)=N3)c1 [Compound 229]	<30	35	<30
COc1ccccc1Oc1ccc2c(c1)CN(Cc1cccc(C(=O)N(C)C3CCCCC3)c1)C(N)=N2 [Compound 232]	<30	<30	31
CN(C(=O)c1cccc(CN2Cc3cc(Oc4ccccc4-c4ccccc4)ccc3N=C2N)c1)C1CCCCC1 [Compound 234]	<30	57	43
CC(C)(C)OC(=O)NCC(C1CCCCC1)N1Cc2cc(Oc3ccccc3)ccc2N=C1N (stereo not drawn) [Compound 257]	67	105	111
CN(C(=O)c1cccc(CN2Cc3cc(C=Cc4ccccc4)ccc3N=C2N)c1)C1CCCCC1 [Compound 266]	<30	34	<30
NC1=Nc2ccc(Oc3ccccc3)cc2CN1Cc1cccc(NC(=O)C2CCCCC2)c1 [Compound 286]	<30	<30	36
CN(C(=O)CCC(c1ccc(Cl)cc1)N1Cc2cc(Oc3ccccc3)ccc2N=C1N)C1CCCCC1 (stereo not drawn) [Compound 297]	<30	76	109
NC1=Nc2ccc(Oc3ccccc3)cc2CN1Cc1cccc(CNC(=O)C2CCCCC2)c1 [Compound 306]	<30	<30	46
NC1=Nc2ccc(Oc3ccccc3)cc2CN1Cc1cccc(CNC(=O)C(F)(F)F)c1 [Compound 307]	<30	<30	<30
CN(C(=O)c1cccc(C(CC2CCCCC2)N2Cc3cc(Oc4ccccc4)ccc3N=C2N)c1)C1CCCCC1 (stereo not drawn) [Compound 310]	<30	<30	57
CC(C)c1ccccc1Oc1ccc2c(c1)CN(C(CC(=O)NC1CCCCC1)C1CCCCC1)C(N)=N2 (stereo not drawn) [Compound 313]	<30	<30	31
CN1CCC(N(C)C(=O)c2cccc(C(c3ccccc3)N3Cc4cc(Oc5ccccc5)ccc4N=C3N)c2)CC1 (stereo not drawn) [Compound 316]	<30	<30	<30

Results, then the compound that gave them:

% Inhibition (FS) (0.3 μM test compound) [%]	% Inhibition (FS) (1 μM test compound) [%]	% Inhibition (FS) (3 μM test compound) [%]	Compound
<30	<30	82	CN(C(=O)CC(C1CCCCC1)N1Cc2cc(Oc3ccccc3)ccc2N=C1N)C1CCCCC1 (stereo not drawn) [Compound 199]
<30	<30	<30	CC(C)N(C(=O)CC(C1CCCCC1)N1Cc2cc(Oc3ccccc3)ccc2N=C1N)C1CCCCC1 (stereo not drawn) [Compound 200]
<30	<30	67	CCCCCCCCC(CCC(=O)NC1CCCCCC1)N1Cc2cc(Oc3ccccc3)ccc2N=C1N (stereo not drawn) [Compound 208]
<30	<30	32	NC1=Nc2ccc(Oc3ccccc3)cc2CN1Cc1cccc(C(=O)N2CCCC3CCCCC32)c1 (stereo not drawn) [Compound 212]
<30	<30	<30	CC1CCC(NC(=O)c2cccc(CN3Cc4cc(Oc5ccccc5)ccc4N=C3N)c2)CC1 (stereo not drawn) [Compound 213]
<30	<30	<30	CN1CCCC1CCNC(=O)c1cccc(CN2Cc3cc(Oc4ccccc4)ccc3N=C2N)c1 (stereo not drawn) [Compound 222]
<30	<30	<30	CN1CCC(N(C)C(=O)c2cccc(CN3Cc4cc(Oc5ccccc5)ccc4N=C3N)c2)CC1 [Compound 223]
86	109	116	COc1ccccc1-c1ccc2c(c1)CN(C(CCC(=O)N(C)C1CCCCC1)C1CCCCC1)C(N)=N2 (stereo not drawn) [Compound 227]
<30	49	40	Cc1cc(C)cc(Oc2ccc3c(c2)CN(Cc2cccc(C(=O)N(C)C4CCCCC4)c2)C(N)=N3)c1 [Compound 228]
<30	33	<30	CN(C(=O)c1cccc(CN2Cc3cc(Oc4cccnc4)ccc3N=C2N)c1)C1CCCCC1 [Compound 230]
<30	32	36	CN(C(=O)c1cccc(CN2Cc3cc(Oc4ccc5c(c4)CCCC5)ccc3N=C2N)c1)C1CCCCC1 [Compound 233]
<30	46	<30	CN(C(=O)c1cccc(CN2Cc3cc(Oc4ccccc4CC(N)=O)ccc3N=C2N)c1)C1CCCCC1 [Compound 235]
<30	37	49	CN(C(=O)c1cccc(CN2Cc3cc(Oc4cccc(Oc5ccccc5)c4)ccc3N=C2N)c1)C1CCCCC1 [Compound 236]
<30	46	72	CC(C)(C)OC(=O)NCC(c1ccccc1)N1Cc2cc(Oc3ccccc3)ccc2N=C1N (stereo not drawn) [Compound 258]
<30	39	38	CN(C(=O)c1cccc(CN2Cc3cc(-c4ccc(C5CCCCC5)cc4)ccc3N=C2N)c1)C1CCCCC1 [Compound 267]
<30	<30	<30	CC(C)(C)C(=O)Nc1cccc(CN2Cc3cc(Oc4ccccc4)ccc3N=C2N)c1 [Compound 290]
<30	<30	<30	NC1=Nc2ccc(Oc3ccccc3)cc2CN1C(CC(=O)NC1CCCCC1)c1ccccc1 (stereo not drawn) [Compound 299]
<30	<30	77	NC1=Nc2ccc(Oc3ccccc3)cc2CN1C(CC(=O)NC1CCCCC1)C1CCCCC1 (stereo not drawn) [Compound 300]
<30	82	106	CC(C)C(=O)NCC(C1CCCCC1)N1Cc2cc(Oc3ccccc3)ccc2N=C1N (stereo not drawn) [Compound 301]
<30	70	109	CCCCC(CC)C(=O)NCC(C1CCCCC1)N1Cc2cc(Oc3ccccc3)ccc2N=C1N (stereo not drawn) [Compound 303]
74	108	118	NC1=Nc2ccc(Oc3ccccc3)cc2CN1C(CNC(=O)CC1CCCC1)C1CCCCC1 (stereo not drawn) [Compound 311]
74	103	115	NC1=Nc2ccc(Oc3ccccc3)cc2CN1C(CNC(=O)C12CC3CC(CC(C3)C1)C2)C1CCCCC1 (stereo not drawn) [Compound 312]
<30	45	85	NC1=Nc2ccc(Oc3ccccc3)cc2CN1C(CC(=O)NC1C2CC3CC(C2)CC1C3)C1CCCCC1 (stereo not drawn) [Compound 314]
<30	<30	33	CC(C)(C)OC(=O)NCc1cccc(CN2Cc3cc(Oc4ccccc4)ccc3N=C2N)c1 [Compound 315]
